Entries after “also recorded” stand apart in the source; their conditions may differ. Read-outs that look alike come from different tables or passages of the source. Each block holds one compound with its values, some of them ahead of it.
Tests used:
[1] = Moisture stability test of Form M (RH 100%, XRPD); assay type: physicochemical; conditions: 100% relative humidity, one night, room temperature
Method: Pomalidomide Form M was subjected to a moisture stability test. 100 mg of Pomalidomide Form M, prepared as described above, were maintained for one night at 100% relative humidity (RH 100%), at room temperature and analyzed by XRPD.

[2] = Relative stability of crystal forms from preparation tests by suspension in solvent; assay type: physicochemical; conditions: suspension in solvent (slurrying) tests
Method: The crystal form of Pomalidomide, named Form M, can be prepared by suspension of the form O under stirring for a night in isopropanol (slurrying) after seeding with Form B.
An alternative method for the preparation of Form M prescribes suspending the form O under stirring for four days (slurrying) in dioxane and seeding with Form A, as described in the present experimental part.
1 g of Pomalidomide Form O prepared as in Example 1, was suspended in 20 ml of isopropanol, seeded with crystals of Pomalidomide Form B and stirred overnight at room temperature, giving after filtration and drying, the new Pomalidomide Form M as crystalline powder.

[3] = Preliminary solubility study of Pomalidomide Form O in a range of solvents; assay type: physicochemical; conditions: for solubility: thermodynamic from solid
Method: A preliminary study of the solubility of Pomalidomide Form O was performed in a range of solvents and under the operating conditions given in the following table 5: […]

[4] = cited from earlier work
[5] = 37° C., cited from earlier work
[6] = pH 1.2, 4.5 and 6.8, cited from earlier work

Structure (SMILES): Nc1cccc2c1C(=O)N(C1CCC(=O)NC1=O)C2=O (stereo not shown) [Pomalidomide Form M]
hygroscopicity / water take-up [1]: did not take-up any water; also recorded: non-hygroscopic
relative stability of crystal form [2]: higher stability than both Form B and Form O

solubility in AcOiBu ([3]; RT): >80 vol RT;
solubility in Anisole ([3]; RT): >80 vol. RT;
solubility in CHCl3 ([3]; RT): >80 vol. RT;
solubility in DMF ([3]; RT): 26 vol.
solubility in DMSO ([3]; RT): 6 vol.
solubility in Dioxane ([3]; RT): >80 vol. RT
solubility in Et2O ([3]; RT): >80 vol. RT;
solubility in MIBK ([3]; RT): >80 vol. RT;
solubility in MeNO2 ([3]; RT): >80 vol. RT;
solubility in NMP ([3]; RT): 8 vol.
solubility ([3]; ethanol, organic solvent or mixture, RT, read-out: solubility in EtOH): < 1000 µg/mL
solubility in AcOiBu ([3]; reflux): >80 vol.
solubility in Anisole ([3]; reflux): >80 vol.
solubility in CHCl3 ([3]; reflux): >80 vol.
solubility in Dioxane ([3]; reflux): <80 vol.
solubility in Et2O ([3]; reflux): >80 vol.
solubility in MIBK ([3]; reflux): >80 vol.
solubility in MeNO2 ([3]; reflux): <80 vol. reflux
solubility ([3]; water, RT, read-out: solubility in H2O): < 1000 µg/mL
Structure (SMILES): Nc1cccc2c1C(=O)N(C1CCC(=O)NC1=O)C2=O (racemic) [Pomalidomide Form O]

Structure (SMILES): Nc1cccc2c1C(=O)N(C1CCC(=O)NC1=O)C2=O (racemic) [Pomalidomide, (R,S)-4-Amino-2-(2,6-dioxo-3-piperidinyl)-isoindol-1,3-dione]
solubility in organic solvents ([4]; absolute ethanol, ethyl acetate, heptane, methanol, 2-propanol, toluene): very slightly soluble
solubility in organic solvents ([4]; acetone, acetonitrile, methylene chloride, methyl ethyl ketone, THF): slightly soluble
Pomalidomide solubility after 24 hours ([5]; pH 1.2 (0.05N HCl)): 15.0 µg/mL
Pomalidomide solubility after 24 hours ([5]; pH 4.5 (0.05M acetato)): 14.6 µg/mL
Pomalidomide solubility after 24 hours ([5]; pH 6.8 (0.05M fosfato)): 13.2 µg/mL
solubility of dose in 250 ml of aqueous medium ([6]; clinical dose of 4 mg): is not
solubility of dose in 250 ml of aqueous medium ([6]; dose of 2 mg): soluble

Source: US10155740B2 (F.I.S.—FABBRICA ITALIANA SINTETICI S.P.A., priority 2016, dated 2018)
